Data published in article PMC9688808, “Discovery of Novel Lin28 Inhibitors to Suppress Cancer Cell Stemness” (Cancers, 2022).

Assays:
DUNE cells = assay: Immunoblotting in DUNE cells; format: cell-based; details: 20uM, 24 hours, immunoblot
Experimental: There are several standard molecular techniques, including real-time qPCR, flow cytometry, cell proliferation, colony formation, and immunoblotting assays, that have been reported previously by our lab.
Figure S2. DUNE cells were treated with 20uM of indicated compounds for 24 hours. Protein lyses were collected and immunoblotted with Vinculin, SOX2, and HMGA2 antibodies. […]
Figure S3. DUNE or DUNE(KO) cells were treated with 20uM of indicated compounds for 24 hours. Protein lyses were collected and immunoblotted with Lin28b, SYP, CD44, and CD133 antibodies. Beta-actin was used as the loading control. […]

[1] = set-up: method as in PMID 29874593; details: cited from earlier work
[2] = set-up: method as in PMID 29874593; details: at high uM concentrations; cited from earlier work

Row | Structure (SMILES) | protein expression of SYP (DUNE cells) | solubility [1] | cellular toxicity [2]
1 | O=c1cccc(-c2nc3cc(F)c(O)cc3c(=O)[nH]2)[nH]1 [Ln115] | suppressed | – | –
2 | CCOc1cccc2c1N[C@@H](c1ccc(C(=O)O)cc1)[C@H]1CC=C[C@@H]21 [Li71, reference compound] | – | high solubility | low cellular toxicity
3 | O=c1[nH]c(Nc2ccccc2O)cs1 [Ln15] | suppressed | – | –
